One assay has as its system DLD-1. Put plainly: Antiproliferative activity against human DLD-1 cells assessed as inhibition of cell growth incubated for 72 hrs by MTS assay. Type of assay: functional, cell-based. The note with it: DLD-1, 72 h. For orientation: Formazan colour is commonly taken as a measure of viable cells.
In a further assay the test system is HT-1080. The assay is described as follows: Cytotoxicity against human HT-1080 cells assessed as reduction in cell viability incubated for 48 hrs by MTT assay. Format: functional, cell-based. To be noted: HT-1080, 48 h.
The target in assay [1] is GTPase KRas (Homo sapiens, UniProt P01116, G12D). The assay is described as follows: Binding affinity to KRAS G12D mutant (unknown origin) assessed as dissociation constant by SPR analysis.
Assay [2] concerns the target GTPase KRas (Homo sapiens, UniProt P01116, G12C). The assay is described as follows: Inhibition of KRAS G12C mutant in human NCI-H358 cells incubated for 24 hrs by Western blot analysis. Type of assay: cell-based. For orientation: In western blotting, separated proteins are transferred to a membrane and probed.
The next assay has as its system NCI-H358. The assay is described as follows: Antiproliferative activity against human NCI-H358 cells assessed as reduction in cell viability. Format: functional, cell-based.
Another assay deals with MIA PaCa-2. Put plainly: Antiproliferative activity against human MIA PaCa-2 cells assessed as reduction in cell viability. Format: functional, cell-based.

GTPase KRas (Homo sapiens, UniProt P01116, G12C), sequence (P01116 whole entry G12C): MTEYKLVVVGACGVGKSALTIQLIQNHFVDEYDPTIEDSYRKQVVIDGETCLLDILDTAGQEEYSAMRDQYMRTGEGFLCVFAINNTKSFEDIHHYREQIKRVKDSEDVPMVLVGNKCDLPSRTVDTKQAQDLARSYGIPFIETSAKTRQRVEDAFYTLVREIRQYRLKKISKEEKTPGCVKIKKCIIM
GTPase KRas (Homo sapiens, UniProt P01116, G12D), sequence (P01116 whole entry G12D): as the sequence (P01116 whole entry G12C) above, with C12D counted along it

For the compound `COc1nc(-c2cccc3c2OCCO3)ccc1Nc1ccc(CN(C)C)cc1`, the 50% inhibitory concentration (IC50) was 8000 nM in the assay on DLD-1 and 10000 nM in the assay on HT-1080. The Kd at GTPase KRas [1] was 51 nM.

Turning to `NC1(C(=O)NCCCn2cc(-c3ccc(OC(F)(F)F)cc3)c3cc(CN4CCN(Cc5c(Cl)cccc5Cl)CC4)ccc32)CCNCC1`, inhibition against GTPase KRas [2] was half-maximal at 1000 nM (IC50).

Compound `C=CC(=O)N1CCN2C(=O)Cc3cc(F)c(-c4ccc(F)c5sc(N)c(C#N)c45)c(Cl)c3OCC2C1` (stereo not drawn) displayed a half-inhibitory concentration (IC50) against GTPase KRas [2] of 3.35 nM.

As to `C=CC(=O)N1CC2(CC(n3nc(-c4ccc5c(cnn5C)c4)c(-c4c(Cl)c(C)cc5[nH]ncc45)c3C)C2)C1` [OPNURASIB], the concentration for half-maximal inhibition (IC50) amounted to 18 nM in the assay on NCI-H358 and 10 nM at GTPase KRas [2].

For `C=CC(=O)N1CCN(c2nc(=O)n(-c3c(C)ccnc3C(C)C)c3nc(-c4c(O)cccc4F)c(F)cc23)[C@@H](C)C1` [SOTORASIB], in the assay with MIA PaCa-2, the IC50 is 100 nM.

As usually defined, the IC50 is the concentration that inhibits the measured activity by half. By Kd is commonly meant a measure of binding affinity in units of concentration.

These data come from ChEMBL document CHEMBL6078623, “Structural insights into small-molecule KRAS inhibitors for targeting KRAS mutant cancers” (Eur J Med Chem, 2024).
